Assay results from PMC12580772, “A First-in-Human Study of ATM Inhibitor Lartesertib as Monotherapy in Patients with Advanced Solid Tumors” (Clinical Cancer Research, 2025).

Tested on: patients with advanced solid tumors
Test: Phase I dose escalation: safety, tolerability, DLTs and MTD
Format: in vivo
Procedure: DDRiver Solid Tumors 410 was an open-label, first-in-human, multicenter, phase I study of lartesertib monotherapy, continuously administered once daily, conducted at three study sites in the United States and Canada. Part 1A was a lartesertib monotherapy dose-escalation study designed to evaluate the safety, tolerability, pharmacokinetics (PK), pharmacodynamics (PD), and early signs of efficacy in patients with advanced solid tumors. Patients were treated with lartesertib at increasing dose levels (DLs) ranging from 100 to 400 mg once daily. Each DL included a dose-limiting toxicity (DLT) observation period of 21 days; treatment was continued until disease progression, death, consent withdrawal, unacceptable toxicity, or the end of the study. Additional details are provided under Study Design in the Supplementary Material S1.
The primary endpoints were the occurrence of DLTs, adverse events (AE), and treatment-related and treatment-emergent AEs (TEAE), along with the occurrence of clinically significant changes in vital signs, laboratory parameters, and 12-lead electrocardiogram findings. The secondary endpoints included PK parameters of lartesertib in plasma after single and multiple doses; establishment of the recommended dose for expansion based on safety, PK, and PD data; absolute and relative changes overtime from baseline in ATM pathway readouts assessed by flow cytometry and immunohistochemistry; and objective response, duration of response, and progression-free survival (PFS) according to the RECIST version 1.1, as assessed by the investigator. Exploratory endpoints included the correlation of baseline and on-treatment biomarkers with response to lartesertib treatment as well as relative changes in total blood cell count, immune cells, and circulatory factors during exposure to lartesertib.
The DLT analysis set included all patients who received ≥80% of the planned cumulative dose during the DLT period (Period 1) and had completed the DLT period, or patients who experienced ≥1 DLT during the DLT period, regardless of the number of lartesertib doses administered. Additional details on all analysis sets are provided in the Supplementary Material S1. Analyses to determine dose escalation were performed on the DLT analysis set and were based on available safety and PK data. A Bayesian two-parameter logistic regression model (BLRM) was applied to assist the safety monitoring committee in dose recommendations during lartesertib dose escalation. For the determination of the MTD, posterior probabilities (2.5%, 25%, 50%, 75%, and 97.5% quantiles) for DLT rates at selected doses were estimated by a BLRM. The target toxicity of the model for MTD was set at 30%.
AEs and diseases were coded according to the Medical Dictionary for Regulatory Activities (RRID: SCR_003751) version 25.1 (until 30 days after the last study treatment). The severity of AEs was graded using the NCI Common Terminology Criteria for Adverse Events (RRID: SCR_010296) version 5.0.
Part 1A was a lartesertib monotherapy dose-escalation designed to determine the safety, tolerability, pharmacokinetics (PK), pharmacodynamics (PD), and early signs of efficacy in participants with solid tumors. For each patient, the study included a Screening period lasting up to 28 days and the estimated total duration in the study was an approximate of 105 days/15 weeks. Patients were treated with lartesertib orally as a tablet, at doses ranging from 100 to 400 mg once daily (QD) under a fasting condition of 2 hours pre-dose to 1-hour post-dose in general, and 2 hours pre-dose to 4 hours post-dose on days where PK-time matched triplicate ECG were collected. Patients were treated until disease progression, death, adverse events (AEs) leading to discontinuation of study intervention(s), or withdrawal of consent, whichever occurred first, or end of study. […]

COc1cc2ncc3c(c2cc1-c1cn(C)nc1C)n(-c1c(F)cncc1OC)c(=O)n3C [lartesertib]
2 (9.2) n (%): Alanine aminotransferase increased, Grade ≥3 (human, in vivo)
4 (18.2) n (%): TEAE: Urinary tract infection (Total N = 22) | Anemia, Grade ≥3 (human, in vivo) | Any AESI cytopenia (human, in vivo) | Any AESI cytopenia, Grade ≥3 (all anemia events) (human, in vivo) | Any lartesertib-related TEAE, Grade ≥3 (human, in vivo) | Blood and lymphatic system disorders, Grade ≥3 (human, in vivo) | Lartesertib-related TEAE: Diarrhea (human, in vivo) | TEAE: Abdominal pain (human, in vivo) | TEAE: Alanine aminotransferase increased (human, in vivo) | TEAE: Anemia (human, in vivo) | TEAE: Aspartate aminotransferase increased (human, in vivo) | TEAE: Diarrhea (human, in vivo)
40.9%: Patients with serious TEAEs (human, in vivo) | TEAE fatigue (human, in vivo)
13.6%: Grade ≥3 decreased lymphocyte count (human, in vivo) | Grade ≥3 increased aspartate aminotransferase (human, in vivo) | Grade ≥3 maculopapular rash (human, in vivo)
1 (4.5) n (%): Abdominal pain, Grade ≥3 (human, in vivo) | Any TEAE, Grade ≥4 (human, in vivo) | Any lartesertib-related TEAE, Grade ≥4 (human, in vivo) | Blood alkaline phosphatase increased, Grade ≥3 (human, in vivo) | Blood bilirubin increased, Grade ≥3 (human, in vivo) | Decreased appetite, Grade ≥3 (human, in vivo) | Dehydration, Grade ≥3 (human, in vivo) | Gamma-glutamyltransferase increased, Grade ≥3 (human, in vivo) | Immune system disorders, Grade ≥3 (human, in vivo) | Immune system disorders, Grade ≥4 (human, in vivo) | Metabolism and nutrition disorders, Grade ≥3 (human, in vivo) | TEAEs, subjects with at least one event, Grade ≥4 (human, in vivo) | Vomiting, Grade ≥3 (human, in vivo)
18.2%: Grade ≥3 anemia (human, in vivo) | Patients with lartesertib-related grade 3 TEAEs (human, in vivo)
1 (14.3) n (%): TEAE: Urinary tract infection (200 mg n = 7)
5 (22.7) n (%): Any TEAE leading to permanent treatment discontinuation (human, in vivo) | Any TEAE leading to temporary treatment discontinuation (human, in vivo) | Lartesertib-related TEAE: Maculopapular rash (human, in vivo) | Lartesertib-related TEAE: Nausea (human, in vivo) | TEAE: Maculopapular rash (human, in vivo) | TEAE: Vomiting (human, in vivo)
3 (13.6) n (%): Aspartate aminotransferase increased, Grade ≥3 (human, in vivo) | Gastrointestinal disorders, Grade ≥3 (human, in vivo) | Lartesertib-related TEAE: Aspartate aminotransferase increased (human, in vivo) | Lartesertib-related TEAE: Blood creatinine increased (human, in vivo) | Lartesertib-related TEAE: Headache (human, in vivo) | Lymphocyte count decreased, Grade ≥3 (human, in vivo) | Maculopapular rash, Grade ≥3 (human, in vivo) | Skin and subcutaneous tissue disorders, Grade ≥3 (human, in vivo) | TEAE: Blood bilirubin increased (human, in vivo) | TEAE: Decreased appetite (human, in vivo) | TEAE: Headache (human, in vivo) | TEAE: Lymphocyte count decreased (human, in vivo)
300 mg once daily: Maximum tolerated dose (MTD) (oral, continuous once daily monotherapy, suggested by BLRM)
68.2%: Patients with at least one lartesertib-related TEAE (human, in vivo)
Five patients: Patients with ≥1 treatment-related adverse events of grade ≥3 (in vivo)
15 (68.2) n (%): Any lartesertib-related TEAE (human, in vivo)
36.4%: TEAE pyrexia (human, in vivo)
4.5%: Decreased neutrophil count, grade 1 or 2 (human, in vivo) | Decreased platelet count, grade 1 or 2 (human, in vivo) | Decreased white blood cell count, grade 1 or 2 (human, in vivo)
27.3%: TEAE increased blood creatinine (human, in vivo) | TEAE nausea (human, in vivo)
No clinically meaningful changes: Changes in vital signs and triplicate electrocardiogram values (in vivo)
22 (100.0) n (%): Any TEAE (human, in vivo)
8 (36.4) n (%): TEAE: Pyrexia (human, in vivo)
1 (11.1) n (%): TEAE: Urinary tract infection (300 mg n = 9)
2 (9.1) n (%): Any lartesertib-related serious TEAE (human, in vivo) | Nausea, Grade ≥3 (human, in vivo)
0 (0.0) n (%): Any TEAE leading to death (100 mg n = 2) | Any lartesertib-related TEAE leading to death (100 mg n = 2) | TEAE: Urinary tract infection (100 mg n = 2) | Any TEAE leading to death (200 mg n = 7) | Any lartesertib-related TEAE leading to death (200 mg n = 7) | Any TEAE leading to death (300 mg n = 9) | Any lartesertib-related TEAE leading to death (300 mg n = 9) | Any TEAE leading to death (400 mg n = 4) | Any lartesertib-related TEAE leading to death (400 mg n = 4) | Any TEAE leading to death (Total N = 22) | Any lartesertib-related TEAE leading to death (Total N = 22) | Abdominal pain, Grade ≥4 (human, in vivo) | Abdominal pain, Grade ≥5 (human, in vivo) | Alanine aminotransferase increased, Grade ≥4 (human, in vivo) | Alanine aminotransferase increased, Grade ≥5 (human, in vivo) | Anemia, Grade ≥4 (human, in vivo) | Anemia, Grade ≥5 (human, in vivo) | Aspartate aminotransferase increased, Grade ≥4 (human, in vivo) | Aspartate aminotransferase increased, Grade ≥5 (human, in vivo) | Blood alkaline phosphatase increased, Grade ≥4 (human, in vivo) | Blood alkaline phosphatase increased, Grade ≥5 (human, in vivo) | Blood and lymphatic system disorders, Grade ≥4 (human, in vivo) | Blood and lymphatic system disorders, Grade ≥5 (human, in vivo) | Blood bilirubin increased, Grade ≥4 (human, in vivo) | Blood bilirubin increased, Grade ≥5 (human, in vivo) | Decreased appetite, Grade ≥4 (human, in vivo) | Decreased appetite, Grade ≥5 (human, in vivo) | Dehydration, Grade ≥4 (human, in vivo) | Dehydration, Grade ≥5 (human, in vivo) | Gamma-glutamyltransferase increased, Grade ≥4 (human, in vivo) | Gamma-glutamyltransferase increased, Grade ≥5 (human, in vivo) | Gastrointestinal disorders, Grade ≥4 (human, in vivo) | Gastrointestinal disorders, Grade ≥5 (human, in vivo) | Immune system disorders, Grade ≥5 (human, in vivo) | Investigations, Grade ≥4 (human, in vivo) | Investigations, Grade ≥5 (human, in vivo) | Lymphocyte count decreased, Grade ≥4 (human, in vivo) | Lymphocyte count decreased, Grade ≥5 (human, in vivo) | Maculopapular rash, Grade ≥4 (human, in vivo) | Maculopapular rash, Grade ≥5 (human, in vivo) | Metabolism and nutrition disorders, Grade ≥4 (human, in vivo) | Metabolism and nutrition disorders, Grade ≥5 (human, in vivo) | Nausea, Grade ≥4 (human, in vivo) | Nausea, Grade ≥5 (human, in vivo) | Skin and subcutaneous tissue disorders, Grade ≥4 (human, in vivo) | Skin and subcutaneous tissue disorders, Grade ≥5 (human, in vivo) | TEAEs, subjects with at least one event, Grade ≥5 (human, in vivo) | Vomiting, Grade ≥4 (human, in vivo) | Vomiting, Grade ≥5 (human, in vivo)
6 (27.3) n (%): Investigations, Grade ≥3 (human, in vivo) | Lartesertib-related TEAE: Pyrexia (human, in vivo) | TEAE: Blood creatinine increased (human, in vivo) | TEAE: Nausea (human, in vivo)
9.1%: Serious TEAE maculopapular rash (human, in vivo) | Serious TEAE nausea (human, in vivo)
9 (40.9) n (%): Any serious TEAE (human, in vivo) | TEAE: Fatigue (human, in vivo)
100%: Patients with at least one TEAE (human, in vivo)
13 (59.1) n (%): Any TEAE, Grade ≥3 (human, in vivo) | TEAEs, subjects with at least one event, Grade ≥3 (human, in vivo)
2 (50.0) n (%): TEAE: Urinary tract infection (400 mg n = 4)
No TEAEs led to death: TEAEs leading to death (study period)
